In patent US7582649B2, “Hydroxy alkyl substituted 1,3,8-triazaspiro[4.5]decan-4-one derivatives useful for the treatment of ORL-1 receptor mediated disorders” (Janssen Pharmaceutica, NV, priority 2002, dated 2009):

Columns and labels:
mu opioid receptor = mu opioid receptor (Homo sapiens, UniProt P35372); test: Filtration binding assay: mu opioid receptor
kappa opioid receptor = kappa opioid receptor (Homo sapiens, UniProt P41145); test: Filtration binding assay: kappa opioid receptor
Sequence of kappa opioid receptor (P41145 whole entry): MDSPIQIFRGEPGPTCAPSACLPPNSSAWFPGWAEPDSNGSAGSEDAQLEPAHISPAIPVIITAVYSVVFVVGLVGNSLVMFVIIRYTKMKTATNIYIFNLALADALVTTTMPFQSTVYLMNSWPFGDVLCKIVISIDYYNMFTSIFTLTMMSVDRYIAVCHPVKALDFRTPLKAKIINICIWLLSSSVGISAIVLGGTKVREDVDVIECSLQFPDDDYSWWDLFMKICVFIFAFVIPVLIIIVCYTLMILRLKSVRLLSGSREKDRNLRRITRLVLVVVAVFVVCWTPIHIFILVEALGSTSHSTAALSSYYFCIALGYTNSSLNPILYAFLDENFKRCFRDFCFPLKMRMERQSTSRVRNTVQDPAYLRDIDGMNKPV

Sequence of mu opioid receptor (P35372 whole entry): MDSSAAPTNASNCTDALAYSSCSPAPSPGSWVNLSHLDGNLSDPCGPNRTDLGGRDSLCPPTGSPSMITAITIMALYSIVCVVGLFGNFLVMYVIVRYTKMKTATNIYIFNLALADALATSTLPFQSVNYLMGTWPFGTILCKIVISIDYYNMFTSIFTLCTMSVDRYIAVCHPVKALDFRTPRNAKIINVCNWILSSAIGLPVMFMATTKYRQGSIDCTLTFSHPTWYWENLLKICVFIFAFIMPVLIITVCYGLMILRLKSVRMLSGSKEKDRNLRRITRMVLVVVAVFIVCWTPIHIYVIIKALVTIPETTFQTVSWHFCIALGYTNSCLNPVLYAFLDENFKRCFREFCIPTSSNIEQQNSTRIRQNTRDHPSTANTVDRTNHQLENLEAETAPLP

SMILES | IC50 (mu opioid receptor) | IC50 (kappa opioid receptor)
COc1cc(CNC[C@H](O)CN2CN(c3ccc(F)cc3)C3(CCN(C4Cc5cccc6cccc4c56)CC3)C2=O)cc(OC)c1 (mixture of isomers) [compound 324] | 0.11 µM | 0.23 µM
O=C1N(C[C@@H](O)CN(CCc2ccccc2)Cc2ccccc2)CN(c2ccc(F)cc2)C12CCN(C1Cc3cccc4cccc1c34)CC2 (mixture of isomers) [compound 313] | 0.33 µM | 0.5 µM
CN(C)CCN(Cc1ccccc1)C[C@H](O)CN1CN(c2ccc(F)cc2)C2(CCN(Cc3cc(C(F)(F)F)cc(C(F)(F)F)c3)CC2)C1=O [compound 674] | ≥ 10 µM | ≥ 10 µM
O=C1N(C[C@@H](O)CNCc2cccc(C(F)(F)F)c2)CN(c2ccc(F)cc2)C12CCN(CC1CCCCCCC1)CC2 [Compound #33] | > 10 µM | 1.16 µM
COc1cc(CNC[C@H](O)CN2CN(c3ccc(F)cc3)C3(CCN(C4Cc5cccc6cccc4c56)CC3)C2=O)cc(OC)c1OC (mixture of isomers) [compound 320] | 0.34 µM | 0.12 µM
CCN(CC)C(=O)C1CCCN(C[C@H](O)CN2CN(c3ccc(F)cc3)C3(CCN(Cc4cc(C(F)(F)F)cc(C(F)(F)F)c4)CC3)C2=O)C1 (stereo partly shown) [compound 686] | ≥ 10 µM | 2.52 µM
Cc1cccc2cccc(CN3CCC4(CC3)C(=O)N(C[C@@H](O)CO)CN4c3ccc(F)cc3)c12 [compound 554] | > 10 µM | 9.47 µM
Cc1cccc2cccc(CN3CCC4(CC3)C(=O)N(C[C@@H](O)CN(Cc3ccccc3)C(C)(C)C)CN4c3ccc(F)cc3)c12 [compound 395] | 1.1 µM | > 10 µM
O=C1N(C[C@@H](O)CNCc2cc(F)ccc2F)CN(c2ccc(F)cc2)C12CCN(CC1CCCCCCC1)CC2 [compound 12] | 0.52 µM | 0.2 µM
Cc1cccc2cccc(CN3CCC4(CC3)C(=O)N(C[C@@H](O)CNCCN3CCOCC3)CN4c3ccc(F)cc3)c12 [compound 396] | > 10 µM | 0.81 µM
O=C1N(C[C@@H](O)CNCc2ccc(Br)cc2)CN(c2ccc(F)cc2)C12CCN(CC1CCCCCCC1)CC2 [compound 15] | 0.85 µM | 0.33 µM
COc1ccc(CNC[C@H](O)CN2CN(c3ccc(F)cc3)C3(CCN(CC4CCCCCCC4)CC3)C2=O)cc1OC [compound 22] | 0.6 µM | 0.3 µM
COc1ccc(CCN(C)C[C@@H](O)CN2CN(c3ccc(F)cc3)C3(CCN(Cc4cccc5cccc(C)c45)CC3)C2=O)cc1OC [compound 391] | > 10 µM | 2.18 µM
O=C1N(C[C@@H](O)CN(Cc2ccccc2)C[C@@H]2CCC[C@@H]2O)CN(c2ccc(F)cc2)C12CCN(CC1CCCCCCC1)CC2 [compound 289] | 1.39 µM | 0.19 µM
O=C1N(C[C@@H](O)CNCc2cc(C(F)(F)F)cc(C(F)(F)F)c2)CN(c2ccc(F)cc2)C12CCN(C1Cc3cccc4cccc1c34)CC2 (mixture of isomers) [compound 319] | 0.32 µM | 0.58 µM
CCCCNC[C@H](O)CN1CN(c2ccc(F)cc2)C2(CCN(CC3CCCCCCC3)CC2)C1=O [compound 454] | 0.51 µM | 0.12 µM
Cc1cccc2cccc(CN3CCC4(CC3)C(=O)N(C[C@H](O)CN(Cc3ccccc3)C(C)(C)C)CN4c3ccc(F)cc3)c12 [compound 389] | 7.06 µM | 9.84 µM
O=C1N(C[C@@H](O)CN2CCN(C(c3ccccc3)c3ccc(Cl)cc3)CC2)CN(c2ccc(F)cc2)C12CCN(C1Cc3cccc4cccc1c34)CC2 (mixture of isomers) [compound 337] | 0.55 µM | 0.25 µM
O=C1N(C[C@@H](O)CNc2ccc(-c3ccccc3)cc2)CN(c2ccc(F)cc2)C12CCN(CC1CCCCCCC1)CC2 [compound 9] | 0.94 µM | 1.4 µM
O=C1N(C[C@@H](O)CNCc2ccccc2Br)CN(c2ccc(F)cc2)C12CCN(CC1CCCCCCC1)CC2 [Compound #44] | 1.13 µM | 0.16 µM
COc1ccc(CCN(C)C[C@H](O)CN2CN(c3ccc(F)cc3)C3(CCN(Cc4cccc5cccc(C)c45)CC3)C2=O)cc1OC [compound 399] | > 10 µM | 0.75 µM
O=C1N(C[C@@H](O)CNCCc2ccccc2)CN(c2ccc(F)cc2)C12CCN(CC1CCCCCCC1)CC2 [Compound #11] | 0.82 µM | 0.29 µM
CCCCN(Cc1ccccc1)C[C@H](O)CN1CN(c2ccc(F)cc2)C2(CCN(Cc3c(C)c(C)c(C)c(C)c3C)CC2)C1=O [Compound #280, 3-[3-(Benzyl-butyl-amino)-2-(S)-hydroxy-propyl]-1-(4-fluoro-phenyl)-8-pentamethylphenylmethyl-1,3,8-triaza-spiro[4.5]decan-4-one] | 2.52 µM | 1.08 µM
O=C1N(C[C@@H](O)CNCc2ccc(Cl)cc2Cl)CN(c2ccc(F)cc2)C12CCN(CC1CCCCCCC1)CC2 [compound 31] | 2.93 µM | 0.28 µM
CN(C)CCN(Cc1ccccc1)C[C@H](O)CN1CN(c2ccc(F)cc2)C2(CCN(Cc3c(Cl)cccc3C(F)(F)F)CC2)C1=O [compound 459] | > 10 µM | 3.21 µM

SMILES | IC50 (mu opioid receptor) | IC50 (kappa opioid receptor)
CCOC(=O)CN(Cc1ccccc1)C[C@H](O)CN1CN(c2ccc(F)cc2)C2(CCN(Cc3cc(C(F)(F)F)cc(C(F)(F)F)c3)CC2)C1=O [compound 670] | ≥ 10 µM | ≥ 10 µM
O=C1N(C[C@@H](O)CN2CCN(c3cccc(C(F)(F)F)c3)CC2)CN(c2ccc(F)cc2)C12CCN(Cc1cc(C(F)(F)F)cc(C(F)(F)F)c1)CC2 [compound 683] | ≥ 10 µM | ≥ 10 µM
Cc1cccc2cccc(CN3CCC4(CC3)C(=O)N(C[C@H](O)CNc3ccncc3)CN4c3ccc(F)cc3)c12 [compound 393] | > 10 µM | 1.04 µM
O=C1N(C[C@@H](O)CNc2ccncc2)CN(c2ccc(F)cc2)C12CCN(Cc1cc(C(F)(F)F)cc(C(F)(F)F)c1)CC2 [compound 608] | ≥ 10 µM | ≥ 10 µM
O=C1N(C[C@@H](O)CNCc2cccnc2)CN(c2ccc(F)cc2)C12CCN(Cc1cc(C(F)(F)F)cc(C(F)(F)F)c1)CC2 [compound 609] | ≥ 10 µM | ≥ 10 µM
CC(c1ccccc1)N(Cc1ccccc1)C[C@H](O)CN1CN(c2ccc(F)cc2)C2(CCN(Cc3cc(C(F)(F)F)cc(C(F)(F)F)c3)CC2)C1=O (stereo partly shown) [compound 672] | ≥ 10 µM | ≥ 10 µM
COc1ccc(CCNC[C@H](O)CN2CN(c3ccc(F)cc3)C3(CCN(Cc4cccc5cccc(C)c45)CC3)C2=O)cc1OC [compound 386] | > 10 µM | 3.69 µM
O=C1N(C[C@@H](O)CNc2ccccc2)CN(c2ccc(F)cc2)C12CCN(Cc1c(Cl)cccc1C(F)(F)F)CC2 [compound 458] | > 10 µM | 1.45 µM
O=C1N(C[C@@H](O)CNCCc2cccs2)CN(c2ccc(F)cc2)C12CCN(CC1CCCCCCC1)CC2 [compound 26] | 0.79 µM | 0.29 µM
O=C1N(C[C@@H](O)CNCc2ccc([N+](=O)[O-])cc2)CN(c2ccc(F)cc2)C12CCN(CC1CCCCCCC1)CC2 [compound 23] | 9.2 µM | 0.49 µM
O=C1N(C[C@@H](O)CN(Cc2ccccc2)C[C@@H]2CCCCC[C@@H]2O)CN(c2ccc(F)cc2)C12CCN(CC1CCCCCCC1)CC2 [compound 291] | 4.56 µM | 0.57 µM
COc1ccccc1CNC[C@H](O)CN1CN(c2ccc(F)cc2)C2(CCN(CC3CCCCCCC3)CC2)C1=O [compound 14] | 1.2 µM | 0.4 µM
O=C1N(C[C@@H](O)CN(CCc2ccccc2)Cc2ccccc2)CN(c2ccc(F)cc2)C12CCN(CC1CCCCCCC1)CC2 [compound 65] | 0.58 µM | 0.51 µM
O=C1N(C[C@@H](O)CN2CCc3ccccc3C2)CN(c2ccc(F)cc2)C12CCN(CC1CCCCCCC1)CC2 [Compound #72] | 1.84 µM | 0.79 µM
COc1ccc(CCN(C)C[C@H](O)CN2CN(c3ccc(F)cc3)C3(CCN(Cc4cc(C(F)(F)F)cc(C(F)(F)F)c4)CC3)C2=O)cc1OC [compound 673] | ≥ 10 µM | ≥ 10 µM
CCCCN(CCCC)CCCNC[C@H](O)CN1CN(c2ccc(F)cc2)C2(CCN(C3Cc4cccc5cccc3c45)CC2)C1=O (mixture of isomers) [compound 338] | 0.74 µM | 0.14 µM
O=C1N(C[C@@H](O)CNc2ccc(C3CCCCC3)cc2)CN(c2ccc(F)cc2)C12CCN(CC1CCCCCCC1)CC2 [compound 285] | 4.78 µM | 2.69 µM
CCCCN(Cc1ccccc1)C[C@H](O)CN1CN(c2ccc(F)cc2)C2(CCN(Cc3c(Cl)cccc3C(F)(F)F)CC2)C1=O [Compound #456, 3-[3-(Benzyl-butyl-amino)-2-(S)-hydroxy-propyl]-8-(2-chloro-6-trifluoromethyl-benzyl)-1-(4-fluoro-phenyl)-1,3,8-triaza-spiro[4.5]decan-4-one] | > 10 µM | > 10 µM
COc1ccc(CNC[C@H](O)CN2CN(c3ccc(F)cc3)C3(CCN(C4Cc5cccc6cccc4c56)CC3)C2=O)cc1OC (mixture of isomers) [compound 307] | 0.75 µM | 0.21 µM
CCOc1ccccc1NC[C@H](O)CN1CN(c2ccc(F)cc2)C2(CCN(CC3CCCCCCC3)CC2)C1=O [compound 281] | 0.58 µM | 0.96 µM
O=C1N(C[C@@H](O)CN2CCN(c3cccc(C(F)(F)F)c3)CC2)CN(c2ccc(F)cc2)C12CCN(C1Cc3cccc4cccc1c34)CC2 (mixture of isomers) [compound 333] | 0.24 µM | 0.39 µM
O=C1N(C[C@@H](O)CN2CCc3ccccc3C2)CN(c2ccc(F)cc2)C12CCN(Cc1cc(C(F)(F)F)cc(C(F)(F)F)c1)CC2 [compound 682] | ≥ 10 µM | ≥ 10 µM
CCCCN(Cc1ccccc1)C[C@H](O)CN1CN(c2ccc(F)cc2)C2(CCN(Cc3cc(C(F)(F)F)cc(C(F)(F)F)c3)CC2)C1=O [compound 671] | ≥ 10 µM | ≥ 10 µM
COc1cc(CNC[C@H](O)CN2CN(c3ccc(F)cc3)C3(CCN(CC4CCCCCCC4)CC3)C2=O)cc(OC)c1OC [Compound #43] | 0.54 µM | 0.32 µM
COC(=O)C(N)CSC[C@H](O)CN1CN(c2ccc(F)cc2)C2(CCN(CC3CCCCCCC3)CC2)C1=O (stereo partly shown) [compound 460] | 0.9 µM | 0.83 µM
